Drawing on PubChem BioAssay (NCI), this text covers TGI and GI50 for 16 compounds.

Test in all cases: NCI tumour cell line growth inhibition, 48 h
Test [1] has as its system DU-145 prostate.
Test [2] relates to UACC-257 melanoma.
Test [3] deals with OVCAR-4 ovarian.
Test [4] has as its system M14 melanoma.
Test [5] deals with TK-10 renal.
Test [6] deals with COLO 205 colon.
Test [7] has as its system UO-31 renal.

SMILES strings stand for the structures. Values joined by “and” are separate entries in the source; they are usually repeats but may differ in a detail not shown here. Identical values can stand only once.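 These data come from cells grown in 96-well plates and exposed to compound for 48 hours at five concentrations. GI50 marks 50% less growth. TGI: concentration producing complete growth inhibition.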

For `O=Cc1ccc(-c2cc(C=O)c(-c3cccs3)[nH]2)s1`, the TGI in test [1] is 75 µM and > 100 µM; in test [2] it was 75 µM and > 100 µM; in test [3], 75 µM and > 100 µM; in test [4], 75 µM and > 100 µM; in test [5], 75 µM and > 100 µM; in test [6] it was 75 µM and 88.6 µM. For the same compound, the TGI in test [7] was 75 µM and > 100 µM. Further, the GI50 in test [2] is > 100 µM; in test [3], 12 µM; in test [4], 27.5 µM; in test [5], 85 µM; in test [7] it was 34 µM.

As to `COc1cc(OC)cc(C2CC(=O)Nc3c2c(C)nn3-c2nc3ccccc3[nH]2)c1` (centres undefined), the GI50 in test [1] is 3.73 µM; in test [2] it was 2.64 µM; in test [3], 4.64 µM; in test [4], 2.46 µM; in test [5], 3.04 µM; in test [6], 2.7 µM. Besides, in test [7], the GI50 is 3.22 µM. For the same compound, the TGI in test [1] is 17.1 µM; in test [2], 7.32 µM; in test [3], > 100 µM; in test [4], 7.27 µM; in test [5], 45.5 µM; in test [6], 6.55 µM. Also, the TGI in test [7] came to 11.4 µM.

Regarding `COc1ccc(/C=N\NC(=O)CN2CCN(c3cc4c(cc3F)c(=O)c(C(=O)N/N=C/c3ccc(OC)c(OC)c3)cn4C3CC3)CC2)cc1OC`, the GI50 in test [1] was 3.54 µM; in test [2] it was 3.38 µM; in test [3], 3.17 µM; in test [4] it was 3.53 µM; in test [5] it was 23.6 µM; in test [6], 3.38 µM. The GI50 in test [7] is > 100 µM. The TGI in test [1] was 12 µM; in test [2], 37.6 µM; in test [3] it was 11 µM; in test [4], 11.9 µM; in test [5] it was > 100 µM; in test [6], 14.8 µM. In test [7], the TGI is > 100 µM.

For `O=C1c2ccccc2-c2c1c1ccccc1c(=O)n2CCCNCCCn1ccnc1`, the GI50 in test [1] is 0.318 µM; in test [2], 4.62 µM; in test [3], 6.34 µM; in test [4] it was 0.51 µM; in test [5], 1.89 µM; in test [6], 2.13 µM. For the same compound, the GI50 in test [7] is 1.23 µM. Also, the TGI in test [1] was determined as 2.07 µM; in test [2] it was 23.1 µM; in test [3], 28.1 µM; in test [4], 1.13 µM; in test [5], 9.73 µM; in test [6], 13.2 µM. For the same compound, the TGI in test [7] is > 100 µM.

Regarding `COC(=O)CCc1cc(OC)c2c(c1)C(C(=O)OC)C(c1ccc(OC)c(OC)c1)O2` (centres undefined), the GI50 in test [1] was > 100 µM; in test [4], > 100 µM and 11.6 µM; in test [6], > 100 µM and 21.6 µM; in test [7], 84.9 µM and 36.8 µM. Moreover, the TGI in test [1], in test [2], in test [3], in test [4], in test [5] and in test [6] was > 100 µM in each case. Further, in test [7], the TGI is > 100 µM.

For `NOCC(=O)O`, the GI50 in test [1] was > 100 µM; in test [2], > 100 µM; in test [3] it was > 100 µM; in test [4] it was 82.8 µM; in test [5], > 100 µM; in test [6], > 100 µM. Further, the GI50 in test [7] was > 100 µM. The TGI in test [1], in test [2], in test [3], in test [4], in test [5] and in test [6] was > 100 µM each time. Further, in test [7], the TGI was > 100 µM.

`O=S(=O)(NC1=NCCN1C(=S)SN1CCn2c1nsc2=S)c1ccc(Br)cc1`: the GI50 was 28.9 µM in test [1]; 46.6 µM in test [2]; 49.2 µM in test [3]; 68.8 µM in test [4]; 22 µM in test [5]; 28.7 µM in test [6]. The GI50 in test [7] was 61 µM. Further, the TGI was > 100 µM in test [1]; > 100 µM in test [2]; > 100 µM in test [3]; > 100 µM in test [4]; 83.5 µM in test [5]; 86.3 µM in test [6]. Besides, in test [7], the TGI is > 100 µM.

Regarding `O=C1Nc2ccc(C(=O)c3ccco3)cc2/C1=C/c1cc(Cl)c(O)c(Cl)c1`, the GI50 in test [1] is 4.75 µM; in test [2], 4.79 µM; in test [3] it was 6.95 µM; in test [4], 1.45 µM; in test [5], 6.53 µM; in test [6] it was 8.01 µM. In addition, the GI50 in test [7] was 4.56 µM. Besides, the TGI in test [1] is > 18.4 µM; in test [2] it was 17.9 µM; in test [3], > 25 µM; in test [4] it was 13.3 µM; in test [5] it was > 23.9 µM; in test [6] it was > 25 µM. Further, in test [7], the TGI was found to be 11.5 µM.

As for `COc1ccc(CN(C)c2ccc(CO)c(Cl)c2)cc1`, the GI50 in test [1] is 34.2 µM; in test [2] it was 0.318 µM; in test [3] it was 1.93 µM; in test [4] it was 22.7 µM; in test [5], 0.179 µM; in test [6], 3.55 µM. In addition, in test [7], the GI50 was 9.38 µM. Besides, the TGI was > 100 µM in test [1]; 1.22 µM in test [2]; > 45.9 µM in test [3]; > 95.5 µM in test [4]; 0.793 µM in test [5]; 17.5 µM in test [6]. Also, the TGI in test [7] turned out to be 92.2 µM.

With `O=C1CC(NC(=O)C(F)(F)F)c2c1csc2Br` (centres undefined), the TGI in test [1], in test [2], in test [3], in test [4], in test [5] and in test [6] was > 100 µM in each case. The TGI in test [7] was > 100 µM.

For `CO[C@@H]1/C=C\C=C(/C)C(=O)NC2=CC(=O)C(NCCN(C)C)=C(C[C@@H](C)C[C@@H](OC)[C@@H](O)[C@H](C)/C=C(\C)[C@H]1OC(N)=O)C2=O`, the GI50 in test [1] is < 0.01 µM; in test [2], 0.0196 µM; in test [4], 0.0125 µM. Also, the TGI in test [1] was 5.13 µM and 12.4 µM; in test [2], 2.06 µM and 1.27 µM; in test [3], 4.76 µM and 4.52 µM; in test [4], 6.51 µM and 4.99 µM; in test [5], 24 µM and 34.7 µM; in test [6], 0.171 µM. Also, the TGI in test [7] is 14 µM and 26.7 µM.

Take `CC1=C2[C@@H](CC1)[C@]1(C)O[C@@](C3CCCCC3)(C[C@H]1OC(=O)CO)[C@H]2OC(=O)/C=C/c1ccccc1`: the GI50 was 9.68 µM in test [1]; 12.3 µM in test [2]; 8.37 µM in test [3]; 8.9 µM in test [4]; 12.3 µM in test [5]; 8.06 µM in test [6]. Besides, the GI50 in test [7] is 0.359 µM. The TGI stood at 23.4 µM in test [1]; 26 µM in test [2]; 23.7 µM in test [3]; 26.8 µM in test [4]; 26.5 µM in test [5]; 24.3 µM in test [6]. In test [7], this compound had a TGI of 14.9 µM.

For `COc1ccc(N2C(=O)CC(Cl)C2=O)cc1` (centres undefined), the TGI in test [1] is > 100 µM; in test [2] it was 29.7 µM; in test [3], 34.3 µM; in test [4], > 100 µM; in test [5], 32.9 µM; in test [6] it was 30 µM. For the same compound, the TGI in test [7] amounted to 33 µM.

As to `ClCc1cccc(Cn2cnc3c(NC45CC6CC(CC(C6)C4)C5)ncnc32)c1`, the GI50 in test [1] was 17.3 µM; in test [2] it was 16 µM; in test [3], 15.5 µM; in test [4], 12.1 µM; in test [5] it was 20.5 µM; in test [6] it was 20.5 µM. In test [7], the GI50 was 14.5 µM. Moreover, the TGI in test [1] is 46.6 µM; in test [2], 37.4 µM; in test [3], 38.8 µM; in test [4], 27.6 µM; in test [5] it was 44.7 µM; in test [6], > 69.4 µM. In test [7], this compound yielded a TGI of 31.4 µM.

With `Cn1ccnc1CC(C)(O)c1ccccc1` (centres undefined), the TGI in test [1], in test [2], in test [3], in test [4], in test [5] and in test [6] was > 100 µM each time. The TGI in test [7] is > 100 µM.

For the compound `CCOC(=O)c1cc(C#N)c(=O)n(/N=C(\C)c2ccncc2)c1O`, the GI50 in test [1], in test [2], in test [3], in test [4], in test [5] and in test [6] was > 100 µM each time. Moreover, in test [7], the GI50 was > 100 µM. Further, the TGI in test [1], in test [2], in test [3], in test [4], in test [5] and in test [6] was > 100 µM throughout. Besides, the TGI in test [7] is > 100 µM.
